Data set [1] has as its system SARS-CoV-2 (hCoV-19/USA-WA1/2020) in Vero CCL-81 cells. Description: microbe, parasite or virus in culture. Format: cell-based. Particulars: for anti-SARS-CoV-2 activity (in words), concentrations up to 100 μM: Vero CCL-81 cells.
Data set [2] in a line: Peak plasma concentration. Particulars: human, in vivo.
For data set [3] the following is noted: cited from earlier work; for Fun: Table 3, 1 – fraction bound reported in the literature, ref column Refs of Table 3.
Data set [4] is described as follows: MTS cytotoxicity assay, Vero CCL-81 cells. Particulars: African green monkey. In general terms: Tetrazolium dyes change colour on reduction, which living cells bring about.
Data set [5] in a line: in vitro. Particulars: African green monkey.
For data set [6] the following is noted: human, in vivo.
Data set [7] relates to SARS-CoV-2 (hCoV-19/USA-WA1/2020) in Caco-2 cells. The data set is described as follows: microbe, parasite or virus in culture. Particulars: Severe acute respiratory syndrome coronavirus 2, Caco-2, 72 h; for EC50: read-out: Caco-2 SARS-CoV-2 EC50; for EC90: read-out: Caco-2 SARS-CoV-2 EC90.
The test system is the same in data set [8]. The conditions noted are these: Caco-2.
Data set [9] concerns SARS-CoV-2 (hCoV-19/USA-WA1/2020) in Calu-3 cells. The data set is described as follows: microbe, parasite or virus in culture. Format: cell-based. The conditions noted are these: Severe acute respiratory syndrome coronavirus 2, Calu-3, MOI 0.01, 72 h, 2% FBS; for EC50: read-out: Calu-3 SARS-CoV-2 EC50; for EC90: read-out: Calu-3 SARS-CoV-2 EC90.
The nature of data set [10]: in vitro. Particulars: human, Caco-2.
A short description of data set [11]: in vitro. Particulars: human.
A short description of data set [12]: in vitro. Particulars: human. This is another data set of the same source.
Setting [13] is: Severe acute respiratory syndrome coronavirus 2, Table 3, drugs tested only in Vero CCL-81, MOI 0.1, 48 h, read-out: Vero CCL-81 Cells EC50.
Setting [14] is: Severe acute respiratory syndrome coronavirus 2, Table 3, drugs tested only in Vero CCL-81, MOI 0.1, 48 h, read-out: Vero CCL-81 Cells EC90.
[15] abbreviates: Severe acute respiratory syndrome coronavirus 2, Table 1 drugs, MOI 0.1, 48 h, 2% FBS, read-out: Vero CCL-81 SARS-CoV-2 EC50.
[16] abbreviates: Severe acute respiratory syndrome coronavirus 2, Table 1 drugs, MOI 0.1, 48 h, 2% FBS, read-out: Vero CCL-81 SARS-CoV-2 EC90.
Setting [17] is: NAs and nucleoside-base precursors, evaluated up to 20 μM.

Counter-ions that a name gives are not always drawn. Like-named read-outs stand apart in the source and are kept apart here.

With `CC(C)OC(=O)[C@H](C)N[P@](=O)(OC[C@H]1O[C@@H](n2ccc(=O)[nH]c2=O)[C@](C)(F)[C@@H]1O)Oc1ccccc1` [sofosbuvir], the “antiviral activity in Vero CCL-81 cells (in words)” value (from here on “antiviral activity”) in data set [1] is reported as “lack of antiviral activity”.

For the compound `O=C1O[C@H]([C@@H](O)CO)C(O)=C1O` [L-ascorbic acid], in data set [1], the “anti-SARS-CoV-2 activity (in words), concentrations up to 100 μM” value (“anti-SARS-CoV-2 activity (in words)” below) is “inactive”.

In general, EC50 refers to the midpoint of the concentration-response curve. Regarding `COc1ccc2[nH]cc(CCNC(C)=O)c2c1` [Melatonin], the “Cmax (μM) {unbound}” value in [2] stood at 0.005 µM. In data set [3], the Fun was 0.22. Moreover, the CC50 at 3 days in data set [4] was over 100 µM. In addition, the EC50 in data set [1] (setting [13]) is 22 µM.

By EC90 is commonly meant the concentration needed for an effect of 90%. For the compound `C[C@H]1c2cccc(O)c2C(=O)C2=C(O)[C@]3(O)C(=O)C(C(N)=O)=C(O)[C@@H](N(C)C)[C@@H]3[C@@H](O)[C@@H]21` [Doxycycline], the “Cmax (μM) {unbound}” value in [2] was determined as 0.55 µM. Moreover, the Fun in [3] is 0.15. The compound further had a CC50 at 3 days in [4] of at least 100 µM. Also, in [1] (setting [13]), the EC50 came out at 69.3 µM. In [1] (setting [14]), the EC90 worked out at 102 µM.

On to `NC(N)=Nc1nc(CSCCC(N)=NS(N)(=O)=O)cs1` [Famotidine], for which the “Cmax (μM) {unbound}” value in data set [2] is 0.16 µM. Further, the Fun in [3] was 0.8. In data set [4], this compound returned a CC50 at 3 days of over 100 µM. In addition, the 50% effective concentration (EC50) in data set [1] (setting [13]) amounted to 160 µM.

Regarding `NC12CC3CC(CC(C3)C1)C2` [Amantadine], the “Cmax (μM) {unbound}” value in data set [2] came to 0.002 µM. For the same compound, the CC50 at 3 days in [4] is over 100 µM.

Regarding `O=C(O)COCCN1CCN(C(c2ccccc2)c2ccc(Cl)cc2)CC1` (stereo not drawn) [cetirizine], in [1], the “anti-SARS-CoV-2 activity (in words)” value is “inactive”.

Turning to `CC(C)C(=O)OCC(=O)[C@@]12O[C@H](C3CCCCC3)O[C@@H]1C[C@H]1[C@@H]3CCC4=CC(=O)C=C[C@]4(C)[C@H]3[C@@H](O)C[C@@]12C` [Ciclesonide], the CC50 at 3 days in [5] stood at 33.9 µM. In [1] (setting [13]), the EC50 was determined as 4.1 µM. The EC90 in [1] (setting [14]) worked out at 7.8 µM. Also, the “Cmax (μM) {unbound}” value in [6] is 0.0000/1 μM.

With `CC(C)C(=O)OC[C@H]1O[C@@H](n2ccc(NO)nc2=O)[C@H](O)[C@@H]1O` [Molnupiravir (NHC), Molnupiravir], the “Fun (unbound fraction of drug in plasma)” value in data set [3] (plasma) is on record as 1. Also, the figures for the EC50 in data set [7], in data set [1] (setting [15]) and in [9] were 1.7 µM, 0.6 µM and 0.4 µM, respectively. The EC90 in data set [7] worked out at 12.2 µM; in data set [1] (setting [16]), 1.4 µM; in data set [9] it was 1.8 µM. In addition, the “Cmax (μM) {unbound}” value in data set [6] was 7.10 µM. Further, the “Caco-2 Unbound Cmax/EC50” value in [8] was determined as 5.3.

As to `O=C(O)Cc1ccccc1Nc1c(Cl)cccc1Cl` [Diclofenac sodium], the “Cmax (μM) {unbound}” value in data set [2] came out at 0.012 µM. Also, the CC50 at 3 days in [4] was over 100 µM. In addition, the 50% effective concentration (EC50) in data set [1] (setting [13]) amounted to 97.6 µM. The EC90 in data set [1] (setting [14]) is 141 µM.

For `CC(C)(O)c1ccccc1CC[C@@H](SCC1(CC(=O)O)CC1)c1cccc(/C=C/c2ccc3ccc(Cl)cc3n2)c1` [Montelukast sodium], in data set [2], the “Cmax (μM) {unbound}” value is 0.009 µM.

As to `CCCCCc1cc(O)c2c(c1)OC(C)(C)c1ccc(C)cc1-2` [Cannabinol], the CC50 in data set [5] stood at 37.3 µM. The Fun in data set [3] is on record as 0.1. In addition, the EC50 in data set [1] (Severe acute respiratory syndrome coronavirus 2, 48 h, read-out: Vero CCL-81 Cells EC50) amounted to 2.7 µM. Further, the EC90 in data set [1] (Severe acute respiratory syndrome coronavirus 2, 48 h, read-out: Vero CCL-81 Cells EC90) was determined as 8.7 µM.

Regarding `Nc1nc(=O)n([C@@H]2CS[C@H](CO)O2)cc1F` [emtricitabine], the “antiviral activity” value in data set [1] (setting [17]) was “lack of antiviral activity”.

In turn, `COC(=O)N[C@H](C(=O)N1CCC[C@H]1c1nc(-c2ccc3c(c2)O[C@@H](c2ccccc2)n2c-3cc3cc(-c4c[nH]c([C@@H]5CCCN5C(=O)[C@@H](NC(=O)OC)C(C)C)n4)ccc32)c[nH]1)C(C)C` [Elbasivir] registered a CC50 at 3 days in data set [5] of over 100 µM. In data set [1] (setting [13]), the concentration for a half-maximal effect (EC50) stood at 3.4 µM. In addition, the concentration for an effect of 90% (EC90) in [1] (setting [14]) turned out to be 12.5 µM. For the same compound, the “Cmax (μM) {unbound}” value in data set [6] was determined as 0.003 µM.

Turning to `CN1CC[C@H](c2c(O)cc(O)c3c(=O)cc(-c4ccccc4Cl)oc23)[C@H](O)C1` [Flavopiridol], the “Cmax (μM) {unbound}” value in data set [2] turned out to be 0.096 µM. Besides, in [3], the Fun is 0.05. In data set [4], this compound returned a CC50 at 3 days of 0.031 µM. Besides, the EC50 in data set [1] (setting [13]) is 0.1 µM. Moreover, the concentration for an effect of 90% (EC90) in data set [1] (setting [14]) was found to be 1.1 µM.

For `C[C@@H]1C[C@H]2[C@@H]3CCC4=CC(=O)C=C[C@]4(C)[C@@]3(F)[C@@H](O)C[C@]2(C)[C@@]1(O)C(=O)CO` [dexamethasone], in data set [1], the “anti-SARS-CoV-2 activity (in words)” value is “inactive”.

Take `CC(C)OC(=O)[C@H](C)N[P@](=O)(CO[C@H](C)Cn1cnc2c(N)ncnc21)Oc1ccccc1` [tenofovir alafenamide]: the “antiviral activity” value in data set [1] is “lack of antiviral activity”.

On to `CC(C)OC(=O)OCOP(=O)(CO[C@H](C)Cn1cnc2c(N)ncnc21)OCOC(=O)OC(C)C` [tenofovir disoproxil fumarate], for which the “antiviral activity” value in data set [1] (setting [17]) is “lack of antiviral activity”.

`NC(=O)c1ncn([C@@H]2O[C@H](CO)[C@@H](O)[C@H]2O)n1` [ribavirin]: in data set [1] (setting [17]), the “antiviral activity” value was “lack of antiviral activity”.

Regarding `c1cc(CN2CCCNCCNCCCNCC2)ccc1CN1CCCNCCNCCCNCC1` [plerixafor], in data set [1], the “anti-SARS-CoV-2 activity (in words)” value was “inactive”.

For `CN(C)CCC(c1ccc(Cl)cc1)c1ccccn1` (stereo not drawn) [Chlorpheniramine maleate], in data set [2], the “Cmax (μM) {unbound}” value is 0.008 µM. Moreover, the Fun in [3] is given as 0.28. The CC50 at 3 days in data set [4] is over 100 µM. Also, in [1] (setting [13]), the EC50 stood at 31 µM. Also, in data set [1] (setting [14]), the 90% effect concentration (EC90) was 104 µM.

With `CC(=O)Oc1ccccc1C(=O)Nc1ncc([N+](=O)[O-])s1` [Nitazoxanide], the CC50 at 3 days in data set [5] is 8.7 µM; in data set [10], 7.2 µM; in data set [12], 49.8 µM. In data set [3] (Table 1, ref column Refs of Table 1), the “Fun (unbound fraction of drug in plasma)” value is given as 0.01. The concentration for a half-maximal effect (EC50) in data set [7] is 4.4 µM; in data set [1] (setting [15]), 1.4 µM; in data set [9] it was 22.8 µM. Besides, the results for the 90% effect concentration (EC90) in [7], in data set [1] (setting [16]) and in data set [9] were 11.1 µM, 3.9 µM and 42.9 µM, respectively. For the same compound, in data set [6], the “Cmax (μM) {unbound}” value came to 0.014 µM. The compound also registered a CC50 at 5 days in data set [11] of 8.3 µM. Besides, the “Caco-2 Unbound Cmax/EC50” value in data set [8] is given as 0.078.

`COC[C@H]1C[C@@H](c2ncc(-c3ccc4c(c3)COc3cc5c(ccc6nc([C@@H]7CC[C@H](C)N7C(=O)[C@@H](NC(=O)OC)C(C)C)[nH]c65)cc3-4)[nH]2)N(C(=O)[C@H](NC(=O)OC)c2ccccc2)C1` [Velpatasvir] yielded a CC50 at 3 days in data set [5] of over 100 µM. Further, in data set [1] (setting [13]), the EC50 amounted to 19.1 µM. For the same compound, the EC90 in data set [1] (setting [14]) is 79.6 µM. For the same compound, the “Cmax (μM) {unbound}” value in [6] is 0.001 µM.

With `CC(C)C(=O)OC[C@H]1O[C@@](C#N)(c2ccc3c(N)ncnn23)[C@H](O)[C@@H]1O` [Obeldesivir], the “Cmax (μM) {unbound}” value in data set [6] stood at 5.79 µM. In data set [8], the “Caco-2 Unbound Cmax/EC50” value came to 72.

Consider `Nc1ccn([C@@H]2CS[C@H](CO)O2)c(=O)n1` [lamivudine], for which the “antiviral activity” value in data set [1] (setting [17]) was “lack of antiviral activity”.

In data set [5], `CN(Cc1cc(Br)cc(Br)c1N)C1CCCCC1` [Bromhexine] came in with a CC50 at 3 days of over 100 µM. Also, the EC50 in [1] (setting [13]) came out at 0.8 µM. In data set [1] (setting [14]), the EC90 amounted to 6.2 µM. Further, the “Cmax (μM) {unbound}” value in data set [6] was found to be 0.005 µM.

In the case of `CC#CC(=O)N1CCC[C@H]1c1nc(-c2ccc(C(=O)Nc3ccccn3)cc2)c2c(N)nccn12` [Acalabrutinib], the CC50 at 3 days in [5] was over 100 µM. In addition, the EC50 in [1] (setting [13]) is 11.1 µM. The EC90 in [1] (setting [14]) was determined as 70.9 µM. Also, in data set [6], the “Cmax (μM) {unbound}” value is 0.017 µM.

`CC(C)/N=c1\cc2n(-c3ccc(Cl)cc3)c3ccccc3nc-2cc1Nc1ccc(Cl)cc1` [Clofazimine]: the CC50 at 3 days in data set [5] was 34.3 µM. For the same compound, the “Cmax (μM) {unbound}” value in [2] amounted to 0.002 µM. Moreover, in [3], the Fun is 0.001. In addition, in [1] (setting [13]), the concentration for a half-maximal effect (EC50) worked out at 0.5 µM. For the same compound, the concentration for an effect of 90% (EC90) in data set [1] (setting [14]) was 3 µM.

Values taken from publication PMC11053489 (Viruses, 2024).
